Measured values published in patent US20130324413A1, “METHOD FOR PROMOTING PLANT GROWTH” (SUMITOMO CHEMICAL COMPANY, LIMITED, priority 2011, published 2013).

Tests used:
Format in all cases: in vivo
[1] = tested on: Corn (cultivar: Hughes 5813); test: Test Example 2: corn seed treatment, amount of harvested grains; conditions: grown 226 days
Protocol: Corn (cultivar: Hughes 5813) seeds were separately treated with 25 μg or 125 μg of compound (1b) for each seed. The amount of the compound required for the treatment was determined by calculation assuming 4,000 grains per kg of seeds. The seeds were coated using seed treatment machine HEGE11(produced by Hans-Ulrich Hege). All the seed treatments included Maxim XL (0.167 ounces/100 pounds), Thiram 42S (2.5 ounces/pound), and Cruiser (containing 0.25 mg/seed of thiamethoxam) and CF-Clear polymer at a concentration of 0.5 ounces/pound. The treated seeds were sown and grown for 226 days, and the corn plants were harvested to obtain grains. […] During the testing, no diseases were observed that affected the yield in the present compound-treated group and the non-treated group.

[2] = tested on: corn plants (cultivar: Koshu); test: Test Example 3: corn seed soaking, fresh weight of above-ground part
Protocol: Each of the 1,000-fold concentrated dimethylsulfoxide (DMSO) solutions of compound (1b) was 1,000-fold diluted with water to prepare a soultion of compound (1b) at the test concentration. The solution was dispensed in 30 ml aliquots into […] Petri dishes, in which seeds of corn plants (cultivar: Koshu) were soaked and incubated for 16 hours at 24° C. in the dark. The corn seeds (cultivar: Koshu) were sown in the culture soil (AISAI) in the plastic pots (55 mm in diameter×58 mm in height), and corn seedlings were grown for 18 days under the following, conditions: temperature, 27° C.; illuminance, about 5,000 lux; day length, 16 hours. As a control, a 0.1% aqueous DMSO solution was prepared, and seeds were soaked in this solution and then sown and grown into seedlings in the same way as described above. This group was used as the non-treated group. The fresh weight of the above-ground part of the corn seedlings obtained above was measured. The experiment was performed in four replications for each individual plant at each treatment concentration and the average weight per individual was calculated.

[3] = tested on: oilseed rape (Brasicca napus); test: Test Example 5: oilseed rape field application, percentage of green pods; conditions: flowable formulation, 250 g per hectare at day 253 (BBCH 65); assessed day 323 (BBCH 85); non-treated 12.75%
Description: Seeds of oilseed rape (Brasicca napus) were sown and grown. At day 253 after the sowing, at growth stage 65, according to the Biologische Bundesanstalt, Bundessortenamt and CHemical industry (BBCH) scale, the flowable formulation prepared as described in Formulation Example 2 containing compound (1b) was applied in an amount of 250 g per hectare. A plot for the treatment measured 6 m×10 m. This plot was the present compound-treated group. A plot treated with the formulation without compound (1b) was used as the non-treated group, in which plants were cultivated in the same manner as in the present compound-treated group.
At day 323 after the sowing, when almost all the plants entered growth stage 85, according to the BBCH scale, the percentage of pods remaining green among the pods of the plants was examined and determined in both the present compound-treated and non-treated groups.

[4] = tested on: corn plants (cultivar: Koshu); test: Test Example 9: corn seed soaking, low-temperature stress, fresh weight of above-ground part; conditions: for Average fresh weight of above-ground part: low-temperature stress 3±2° C. 7 days, non-treated 1.18 g
Protocol: Each of the 1,000-fold concentrated dimethylsulfoxide (DMSO) solutions of compound (1b) was 1,000-fold diluted with water to prepare a soultion of compound (1b) at the test concentration. The solution was dispensed in 30 ml aliquots into […] Petri dishes, in which seeds of corn plants (cultivar: Koshu) were soaked and incubated for 16 hours at 24° C. in the dark. The corn seeds were sown in the culture soil (AISAI) in the plastic pots (55 mm in diameter×58 mm in height), and corn seedlings were grown for 4 days under the following conditions: temperature, 27° C.; illuminance, about 5,000 lux; day length, 16 hours. As a control, a 0.1% aqueous DMSO solution was prepared, and seeds were soaked in this solution and then sown and grown into seedlings in the same way as described above. This group was used as the non-treated group. The corn seedlings were placed in a phytotron under the following conditions in order to expose the plants to low-temperature stress for 7 days. • Conditions: “temperature, 3±2° C.; day length, 16 hours; • illuminance, about 5,000 lux; humidity, 35 to 80%” The plants were then grown for another 7 days under the following conditions: temperature, 27° C.; humidity, 50 to 75%, illuminance, about 5,000 lux; day length, 16 hours. Then the fresh weight of the above-ground part of the plants was measured. The experiment was performed in four replications for each individual plant for each treatment condition and the average weight per individual was calculated.

[5] = tested on: oilseed rape (Brasicca napus); test: Test Example 11: oilseed rape field application, yield of the seeds; conditions: flowable formulation, 250 g per hectare at day 240 (BBCH 63); evaluated day 334; non-treated 4.25 tons/hectare
Description: Seeds of oilseed rape (Brasicca napus) were sown at 5.5 kg seeds per hectare and grown. At day 240 after the sowing, at growth stage 63, according to the Biologische Bundesanstalt, Bundessortenamt and CHemical industry (BBCH) scale, the flowable formulation prepared as described in Formulation Example 2 containing compound (1b) was applied in an amount of 250 g per hectare. A group for the treatment measured 2 m×12 m. This group was the present compound-treated group. A group treated with the formulation without compound (1b) was used as the non-treated group, in which plants were cultivated in the same manner as in the treated group.
At day 334 after the sowing, the yield of the seeds was evaluated. As a result, the yield calculated presuming 9% seed water content was 4.55 tons/hectare in the present compound-treated group, while it was 4.25 tons/hectare in the non-treated group. During the testing, no diseases were observed that affected the yield either in the present compound-treated or non-treated group.

CNC(=O)C(OC)c1ccccc1COc1cc(C)ccc1C (racemic) [Compound (1b), N-methyl-2-[2-(2,5-dimethylphenoxy)methyl]phenyl-2-methoxyacetamide]
increase in amount of the harvested grains as compared with the non-treated group ([1]; seeds treated with 25 μg per seed): 11% | increase in amount of the harvested grains as compared with the non-treated group ([1]; seeds treated with 125 μg per seed): 9% | fresh weight of the above-ground part as compared with the non-treated group ([2]; concentration of 3 ppm): increased | Average fresh weight of above-ground part ([2]; seed soaking 3 ppm, 16 hours, grown 18 days, non-treated 4.47 g): 6.60 g | percentage of green pods [3]: 22.25% | fresh weight of the above-ground part as compared with the non-treated group ([4]; plants exposed to low-temperature stress, concentration range of 3 ppm to 30 ppm): increased | Average fresh weight of above-ground part ([4]; seed soaking 3 ppm): 1.49 g | Average fresh weight of above-ground part ([4]; seed soaking 10 ppm): 2.25 g | Average fresh weight of above-ground part ([4]; seed soaking 30 ppm): 1.35 g | yield of the seeds calculated presuming 9% seed water content [5]: 4.55 tons/hectare
